Assay results from ChEMBL document CHEMBL3727364, “Resorcinol n-aryl amide compounds, for use as pyruvate dehydrogenase kinase inhibitors” (2015).

Each compound was assayed against [Pyruvate dehydrogenase (acetyl-transferring)] kinase isozyme 1, mitochondrial (Homo sapiens, UniProt Q15118) (assay: Binding affinity to pyruvate dehydrogenase kinase 1 (unknown origin) incubated for 90 mins by VER-00160364 probe based fluorescence polarization assay).
Chain of [Pyruvate dehydrogenase (acetyl-transferring)] kinase isozyme 1, mitochondrial (Q15118 whole entry): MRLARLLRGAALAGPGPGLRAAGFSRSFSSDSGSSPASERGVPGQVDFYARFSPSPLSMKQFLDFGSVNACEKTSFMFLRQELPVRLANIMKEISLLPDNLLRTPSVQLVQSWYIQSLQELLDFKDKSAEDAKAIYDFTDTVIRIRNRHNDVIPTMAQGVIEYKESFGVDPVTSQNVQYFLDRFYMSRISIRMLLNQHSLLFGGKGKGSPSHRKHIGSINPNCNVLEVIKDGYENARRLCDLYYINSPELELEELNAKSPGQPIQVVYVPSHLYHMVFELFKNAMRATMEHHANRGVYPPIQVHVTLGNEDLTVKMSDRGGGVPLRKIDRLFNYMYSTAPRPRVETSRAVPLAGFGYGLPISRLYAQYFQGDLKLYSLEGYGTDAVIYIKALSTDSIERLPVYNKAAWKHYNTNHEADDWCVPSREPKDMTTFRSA

SMILES	IC50
CNC(=O)c1ccc(N(Cc2cccnc2)C(=O)c2ccc(O)cc2O)cc1	1000 nM
COc1ccc(CN(C)C(=O)c2ccc(N(Cc3cccc(C)c3)C(=O)c3cc(Cl)c(O)cc3O)cc2)cc1	1000 nM
CN(Cc1ccnc2ccccc12)C(=O)c1ccc(N(Cc2ccccc2)C(=O)c2ccc(O)cc2O)cc1	100 nM
Cc1nc(C(F)(F)F)nc(-c2ccc(N(Cc3ccccc3)C(=O)c3ccc(O)cc3O)cc2)c1C	1000 nM
COc1cc(-c2ccc(N(Cc3ccsc3)C(=O)c3ccc(O)cc3O)cc2)cnc1OC	10000 nM
C[C@H](c1ccccc1)N(C(=O)c1cc(Cl)c(O)cc1O)c1ccc(C(=O)N(C)C)cc1	1000 nM
O=C(Nc1ccc(N(Cc2ccccc2)C(=O)c2ccc(O)cc2O)cc1)Nc1cccnc1	1000 nM
Cc1ccnnc1-c1ccc(N(Cc2cccnc2)C(=O)c2ccc(O)cc2O)cc1	100 nM
Cc1ncc(C)c(-c2ccc(N(Cc3cccnc3)C(=O)c3ccc(O)cc3O)cc2)n1	10 nM
O=C(Nc1ccc(N(Cc2ccccc2)C(=O)c2ccc(O)cc2O)cc1)NC1CCCC1	10000 nM
O=C(c1ccc(O)cc1O)N(Cc1cccnc1)c1ccc(-c2nccc3occc23)cc1	1000 nM
O=C(Nc1ccc(N(Cc2ccccc2)C(=O)c2ccc(O)cc2O)cc1)c1cc2ccccc2s1	10000 nM
Cc1cc(S(=O)(=O)NCCCC(N)=O)cnc1-c1ccc(N(Cc2cccnc2)C(=O)c2ccc(O)cc2O)cc1	10 nM
Cc1cc2ccccc2nc1-c1ccc(N(Cc2ccc(CN3CCCC3)cc2)C(=O)c2ccc(O)cc2O)cc1	100 nM
Cc1nccnc1-c1ccc(N(Cc2ccccc2)C(=O)c2ccc(O)cc2O)cc1	1000 nM
Cc1cc(S(=O)(=O)N2CCCCC2)cnc1-c1ccc(N(Cc2ccccc2)C(=O)c2ccc(O)cc2O)cc1	100 nM
Cc1cc(S(=O)(=O)N2CCOCC2)cnc1-c1ccc(N(Cc2cccnc2)C(=O)c2ccc(O)cc2O)cc1	10 nM
CN(C)C(=O)c1ccc(N(Cc2cccc(O)c2)C(=O)c2cc(Cl)c(O)cc2O)cc1	100 nM
Cc1cc(S(=O)(=O)N2CC(F)(F)C2)cnc1-c1ccc(N(Cc2ccsc2)C(=O)c2ccc(O)cc2O)cc1	100 nM

SMILES	IC50
O=C(c1ccc(O)cc1O)N(Cc1ccsc1)c1ccc(-c2ncnc3cccc(F)c23)cc1	100 nM
CN(Cc1cccc2ncccc12)C(=O)c1ccc(N(Cc2cccnc2)C(=O)c2ccc(O)cc2O)cc1	100 nM
O=C(c1ccc(O)cc1O)N(Cc1ccccc1)c1ccc(-c2nc(Cl)nc3c2COCC3)cc1	1000 nM
N#Cc1cccc(-c2ccc(N(Cc3cccnc3)C(=O)c3ccc(O)cc3O)cc2)c1	1000 nM
Cc1cnc(N(C)C)nc1-c1ccc(N(Cc2ccccc2)C(=O)c2ccc(O)cc2O)cc1	100 nM
CN(Cc1cccc2cccnc12)C(=O)c1ccc(N(Cc2ccccc2)C(=O)c2ccc(O)cc2O)cc1	100 nM
CCOc1ccc2nc(-c3ccc(N(Cc4cccnc4)C(=O)c4ccc(O)cc4O)cc3)c(C)cc2c1	100 nM
O=C(c1ccc(O)cc1O)N(Cc1ccccc1)c1ccc(-c2ncnc3ccsc23)cc1	10000 nM
O=C(c1ccc(O)cc1O)N(Cc1ccccc1)c1ccc(-c2nncc3ccccc23)cc1	1000 nM
CN(Cc1ccc2nccnc2c1)C(=O)c1ccc(N(Cc2ccccc2)C(=O)c2ccc(O)cc2O)cc1	10 nM
Cc1cc(S(=O)(=O)N2CCOCC2)cnc1-c1ccc(N(Cc2ccccc2)C(=O)c2ccc(O)cc2O)cc1	100 nM
CN(Cc1ccc2ccccc2n1)C(=O)c1ccc(N(Cc2ccsc2)C(=O)c2ccc(O)cc2O)cc1	100 nM
CSc1ccc(CN(C(=O)c2ccc(O)cc2O)c2ccc(-c3nc4ccccc4cc3C)cc2)cc1	100 nM
CN(Cc1ccc2ccccc2c1)C(=O)c1ccc(N(Cc2ccccc2)C(=O)c2ccc(O)cc2O)cc1	10000 nM
Cc1cc(S(=O)(=O)N2CCN(C)CC2)cnc1-c1ccc(N(Cc2cccnc2)C(=O)c2ccc(O)cc2O)cc1	10 nM
CNS(=O)(=O)c1cnc(-c2ccc(N(Cc3ccccc3)C(=O)c3ccc(O)cc3O)cc2)c(C)c1	100 nM
CCc1nccnc1-c1ccc(N(Cc2cccnc2)C(=O)c2ccc(O)cc2O)cc1	100 nM
Cc1cc2cccc(C)c2nc1-c1ccc(N(Cc2cccnc2)C(=O)c2ccc(O)cc2O)cc1	1000 nM
O=C(c1ccc(O)cc1O)N(Cc1ccsc1)c1ccc(-c2ncnc3ccc(Cl)cc23)cc1	1000 nM

SMILES	IC50
CN(C)C(=O)c1ccc(N(Cc2ccc(F)cc2)C(=O)c2cc(Cl)c(O)cc2O)cc1	100 nM
Cc1cn(-c2ccc(-c3ccc(N(Cc4ccccc4)C(=O)c4ccc(O)cc4O)cc3)nn2)cn1	1000 nM
CN(Cc1cccc2cccnc12)C(=O)c1ccc(N(Cc2ccsc2)C(=O)c2ccc(O)cc2O)cc1	100 nM
CCNc1cc(-c2ccc(N(Cc3cccnc3)C(=O)c3ccc(O)cc3O)cc2)ncn1	1000 nM
COCCN(C)S(=O)(=O)c1cnc(-c2ccc(N(Cc3cccnc3)C(=O)c3ccc(O)cc3O)cc2)c(C)c1	10 nM
O=C(c1ccc(O)cc1O)N(Cc1cccnc1)c1ccc(-c2nc3ccc(Cl)cc3cc2CO)cc1	10 nM
O=C(c1ccc(O)cc1O)N(Cc1cccnc1)c1ccc(-c2ccc(NC3CC3)nn2)cc1	1000 nM
COc1cnc(Cl)nc1-c1ccc(N(Cc2ccccc2)C(=O)c2ccc(O)cc2O)cc1	100 nM
CSc1nc(-c2ccc(N(Cc3ccsc3)C(=O)c3ccc(O)cc3O)cc2)c2cc[nH]c2n1	1000 nM
COc1cc2ncnc(-c3ccc(N(Cc4cccnc4)C(=O)c4ccc(O)cc4O)cc3)c2cc1OC	1000 nM
Cc1nc(-c2ccc(N(Cc3ccccc3)C(=O)c3ccc(O)cc3O)cc2C)c2ccccc2n1	100 nM
Cc1ccc(Cl)cc1-c1ccc(N(Cc2ccccc2)C(=O)c2ccc(O)cc2O)cc1	1000 nM
Cc1cc(S(=O)(=O)NCc2ccncc2)cnc1-c1ccc(N(Cc2cccnc2)C(=O)c2ccc(O)cc2O)cc1	10 nM
O=C(c1ccc(O)cc1O)N(Cc1ccccc1)c1ccc(-c2nc(Cl)nc3[nH]ccc23)cc1	1000 nM
Nc1ccc(-c2ccc(N(Cc3cccnc3)C(=O)c3ccc(O)cc3O)cc2)nn1	1000 nM
CCOC(=O)c1nc(-c2ccc(N(Cc3ccccc3)C(=O)c3ccc(O)cc3O)cc2)c2ccccc2n1	10000 nM
O=C(c1ccc(O)cc1O)N(Cc1cccnc1)c1ccc(-c2nc(Cl)nc3c2COCC3)cc1	100 nM
Cc1cccnc1-c1ccc(N(Cc2cccnc2)C(=O)c2ccc(O)cc2O)cc1	100 nM

More lines, now with the values ahead:

IC50	SMILES
100 nM	CSc1nc2c(c(-c3ccc(N(Cc4cccnc4)C(=O)c4ccc(O)cc4O)cc3)n1)CCC2
1000 nM	Cc1cc(N)ncc1-c1ccc(N(Cc2ccccc2)C(=O)c2ccc(O)cc2O)cc1
100 nM	CN(Cc1cccc2cnccc12)C(=O)c1ccc(N(Cc2ccccc2)C(=O)c2ccc(O)cc2O)cc1
10 nM	Cc1cnc(Cl)nc1-c1ccc(N(Cc2ccccc2)C(=O)c2cc(Cl)c(O)cc2O)cc1
100 nM	Cc1cnc(Cl)nc1-c1ccc(N(C(=O)c2ccc(O)cc2O)[C@H](C)c2ccccc2)cc1
1000 nM	CSc1nc(Cl)cc(-c2ccc(N(Cc3cccnc3)C(=O)c3ccc(O)cc3O)cc2)n1
10 nM	O=C(c1ccc(O)cc1O)N(Cc1cccnc1)c1ccc(-c2ncnc3cccc(F)c23)cc1
1000 nM	Cc1sc2ncnc(-c3ccc(N(Cc4ccsc4)C(=O)c4ccc(O)cc4O)cc3)c2c1C
1000 nM	Cc1c(-c2ccc(N(Cc3ccccc3)C(=O)c3ccc(O)cc3O)cc2)ccc2c1NC(=O)C2=O
10000 nM	Cc1cnc(NC(C)C)nc1-c1ccc(N(Cc2ccccc2)C(=O)c2ccc(O)cc2O)cc1
1000 nM	O=C(O)c1nc(-c2ccc(N(Cc3ccccc3)C(=O)c3ccc(O)cc3O)cc2)c2ccccc2n1
100 nM	COc1ccc(CN(C)C(=O)c2ccc(N(Cc3ccsc3)C(=O)c3ccc(O)cc3O)cc2)cc1
10 nM	Cc1ccc(CN(C(=O)c2ccc(O)cc2O)c2ccc(-c3nc4ccccc4cc3C)cc2)cc1
10 nM	Cc1cc(S(=O)(=O)N2CCC(F)(F)CC2)cnc1-c1ccc(N(Cc2cccnc2)C(=O)c2ccc(O)cc2O)cc1
1000 nM	O=C(c1ccc(O)cc1O)N(Cc1cccnc1)c1ccc(-c2ccccc2Cl)cc1
100 nM	COc1ccc(CNC(=O)c2ccc(N(Cc3cccnc3)C(=O)c3ccc(O)cc3O)cc2)cc1
100 nM	Cc1cc2ccccc2nc1-c1ccc(N(Cc2ccc(-c3ccccc3)cc2)C(=O)c2ccc(O)cc2O)cc1

IC50	SMILES
1000 nM	Cc1cc(-c2ccc(N(Cc3cccnc3)C(=O)c3ccc(O)cc3O)cc2)nnc1Cl
1000 nM	CN(Cc1cccc2ccccc12)C(=O)c1ccc(N(Cc2ccsc2)C(=O)c2ccc(O)cc2O)cc1
100 nM	CN(Cc1ccc2ncccc2c1)C(=O)c1ccc(N(Cc2ccccc2)C(=O)c2ccc(O)cc2O)cc1
1000 nM	Cc1c(-c2ccc(N(Cc3cccnc3)C(=O)c3ccc(O)cc3O)cc2)ccc2[nH]ncc12
100 nM	O=C(c1ccc(O)cc1O)N(Cc1ccsc1)c1ccc(-c2ncccc2CO)cc1
100 nM	O=C(c1ccc(O)cc1O)N(Cc1cccnc1)c1ccc(-c2nc(Cl)nc3[nH]ccc23)cc1
100 nM	Cc1cnc(C)c(-c2ccc(N(Cc3ccccc3)C(=O)c3ccc(O)cc3O)cc2)n1
1000 nM	COc1ccc(-c2ccc(N(Cc3cccnc3)C(=O)c3ccc(O)cc3O)cc2)c(OC)c1
10 nM	Cc1cc(Cl)nnc1-c1ccc(N(Cc2cccnc2)C(=O)c2ccc(O)cc2O)cc1
100 nM	CN(C)C(=O)c1ccc(N(Cc2cccnc2)C(=O)c2ccc(O)cc2O)cc1
100 nM	Cc1cc(N(Cc2ccccc2)C(=O)c2ccc(O)cc2O)ccc1-c1nc2cc(F)ccc2cc1C
100 nM	CN(Cc1ccc2ncccc2c1)C(=O)c1ccc(N(Cc2cccnc2)C(=O)c2ccc(O)cc2O)cc1
10000 nM	O=C(c1ccc(O)cc1O)N(Cc1ccccc1)c1ccc(-c2cnc3ccccc3n2)cc1
100 nM	Cc1nc(C(F)(F)F)nc(-c2ccc(N(Cc3ccsc3)C(=O)c3ccc(O)cc3O)cc2)c1C
100 nM	O=C(c1ccc(O)cc1O)N(Cc1ccccc1)c1ccc(-c2ccc(NC3CC3)nn2)cc1
100 nM	CN(Cc1cccc2ncccc12)C(=O)c1ccc(N(Cc2ccccc2)C(=O)c2ccc(O)cc2O)cc1
10 nM	Cc1ccc(CN(C(=O)c2ccc(O)cc2O)c2ccc(-c3nc(C)ncc3C)cc2)cc1
